Assay results published in patent publication US10035791B2, “Bicyclic compound and pharmaceutical composition thereof for treating stroke and use thereof” (China Medical University, priority 2016, dated 2018).

Columns and labels:
HIF-1α [1] = experiment: HIF-1α expressions in the brains of the ischemic rats, Western blot; format: in vivo, Sprague-Dawley (SD) rats
Text: The ischemic rats are induced by an ischemia-reperfusion model to simulate transient focal cerebral ischemia in rats. Test animals are male Sprague-Dawley (SD) rats weighing 250-300 g. The rats are anesthetized with chloral hydrate (0.4 g/kg IP) and subjected to cerebral ischemia. The ischemia-reperfusion model is induced by ligations of bilateral common carotid arteries (CCAs) and a right middle cerebral artery (MCA). The bilateral CCAs are clamped with non-traumatic arterial clips, and the right MCA is ligated with an 10-0 nylon suture. After 90 minutes ischemia, the suture on the MCA and the arterial clips on CCAs are removed to allow reperfusion. Core body temperature is monitored with a thermistor probe (Hewlett-Packard Model 21090A probe, Hewlett-Packard Company, Andover, Mass.), and maintained at 37° C. with a heating pad during anesthesia. After recovery from anesthesia, rat body temperature is maintained at 37° C. with a heat lamp.
The ischemia-reperfusion model is established as described above. The ischemic rats are injected intraperitonealy with different dosages of the Compound 1 (0.1 mg/kg, 1 mg/kg and 10 mg/kg) at 4 hours after MCA ligation for three consecutive days. Sham rats undergo same protocol with the exception of the ligation of the bilateral CCAs and the right MCA. The rats only injected a vehicle are used as the control. The ischemic rats are decapitated at 4 hours, 16 hours, 24 hours, 36 hours and 72 hours after the Compound 1 injection. The Bmi-1 expressions and the HIF-1α expressions of the ischemic rats are detected by the Western blot analysis.
The ischemic rats are further treated with 100 mg/kg of the 2-ME2 or stereotaxic injected with the LV-Bmi-1-sh or the LV-control-sh to inhibit the HIF-1α expressions and the Bmi-1 expressions, and then the ischemic rats are treated with 1 mg/kg of the Compound 1. The effect of the administration of the Compound 1 on the Bmi-1 expressions in the brains of the ischemic rats which are reduced the Bmi-1 expressions or the HIF-1α expressions are detected by the Western blot analysis.

HIF-1α [2] = experiment: HIF-1α expressions in the PCCs with hypoxic treatment, Western blot; format: cell-based, C57BL/6 mice; details: 1 μM 2-ME2 for 16 hours, FIG. 6C
Description: Test cells are primary cortical cultures (PCCs) in this example. The PCCs are prepared from cerebral cortexes of gestation day 17 embryos from C57BL/6 mice as described previously (Cell Death Differ 2008; 15: 143-151). The PCCs are maintained under serum-free conditions in neurobasal medium (Invitrogen), supplemented with B-27 supplement (2%; invitrogen), glutamine (0.5 mM; Sigma Aldrich), glutamate ([…]; Sigma Aldrich), penicillin (100 U/ml) and streptomycin ([…]; Invitrogen). At 4 days in vitro, half of the medium is removed and replaced with fresh medium without glutamate. The cultures are maintained in a humidified incubator at 37° C. with 5% CO2. At 7 days in vitro, the PCCs are used for experimentation.
One group of the PCCs is transduced with LV-HIF-1α-sh (sc-35562-V, Santa Cruz Biotechnology) and LV-control-sh (sc-108080, Santa Cruz Biotechnology) by a lenti-viral infection to reduce the HIF-1α expressions. Another group of the PCCs is treated with 1 μM of 2-ME2 for 16 hours to reduce the HIF-1α expressions in the PCCs. In FIG. 6C, the HIF-1α expressions in the PCCs are decreased both in the LV-HIF-1α-sh transduced group and the 2-ME2 treated group.

| Compound | treatment time with the highest HIF-1α expression (HIF-1α [1]; 1 mg/kg, 4 to 72 hours after injection, FIG. 13A) [h] | HIF-1α expressions in the brains of the ischemic rats (HIF-1α [1]; 0.1, 1, 10 mg/kg intraperitoneal, vs control and sham rats, FIGS. 13A, 13B) | dosage with the highest HIF-1α expression (HIF-1α [1]; 0.1, 1, 10 mg/kg tested, 36 hours, FIG. 13B) [mg/kg] | HIF-1α expressions in the PCCs (HIF-1α [2]) |
| --- | --- | --- | --- | --- |
| COC(=O)C1=CO[C@@H](O)[C@@H]2C(COC(=O)[C@@H](N)Cc3ccccc3)=CC[C@H]12 [Compound 1] | 4 | significantly increases | 1 | – |
| COc1cc2c(cc1O)CC[C@@H]1[C@@H]2CC[C@]2(C)[C@@H](O)CC[C@@H]12 [Compound 2-ME2, 2-Methoxyestradiol, reference compound] | – | – | – | decreased |
